From US20100029710A1, “COMPOUNDS HAVING BOTH ANGIOTENSIN II RECEPTOR ANTAGONISM AND PPARy ACTIVATING ACTIVITIES” (Pfizer Products Inc., priority 2006, published 2010) come the findings set out here.

For orientation: pEC50 means −log10 of the EC50, conventionally taken in molar units. A higher pEC50 goes with a small EC50. Usually pIC50 stands for −log10 of the IC50, conventionally taken in molar units.

pEC50, pIC50: −log10 of the molar value.

Experiment [1] concerns the target T1, human PPARγ LBD bound to Gal4 DBD (Homo sapiens, UniProt P37231).
T1 construct: expressed in transfected cells; host or cells: HepG2
T1 sequence (P37231 238-503 limits assumed): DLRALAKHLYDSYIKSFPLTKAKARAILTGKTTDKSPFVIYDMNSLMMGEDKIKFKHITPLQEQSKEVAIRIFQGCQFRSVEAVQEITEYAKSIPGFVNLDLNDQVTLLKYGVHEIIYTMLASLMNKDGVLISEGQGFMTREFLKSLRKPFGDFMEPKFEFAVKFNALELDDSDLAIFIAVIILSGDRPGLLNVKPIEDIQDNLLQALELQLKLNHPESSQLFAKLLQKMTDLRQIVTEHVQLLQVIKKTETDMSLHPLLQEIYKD
The experiment is described as follows: PPARγ transfection luciferase reporter assay in HepG2 cells. As to conditions: for Emax: HepG2, 24 h, compared to full agonist response (standard TZD full agonist), read-out: PPARγ % activation; for pEC50: HepG2, 24 hours exposure. Format: cell-based. The method, then: PPARγ agonist activity may be determined by a cell line transiently transfected with PPARγ bound to a DNA binding domain that controls luciferase expression. The degree of receptor agonism is measured by the amount of luciferase activity after compound treatment. The ratio of treated cells over vehicle control cells provides a measure of fold activation and allows an EC50 (shown in tables I and II as […] EC50) and % activation to be calculated
A human hepatocellular carcinoma cell line (HepG2) was subcultured into dishes and transiently transfected with DNA to allow expression of human PPARγ LBD bound to Gal4 DBD. Luciferase reporter gene and β-galactosidase control genes were co-transfected to enable activity to be measured. After 24 hours, cells were exposed to compounds in the concentration range of 0.1 nM-100 μM and left for a further 24 hours. Luciferase activity is determined by luminometry and PPARγ activation is expressed as a ratio of luciferase activity to β-galactosidase activity to account for transfection efficiency. Potency is described by an EC50 defined as the concentration of compound producing receptor activation equivalent to 50% of the maximum for that compound (shown in Table I as transfection EC50). The maximum fold activation is a measure of efficacy and is expressed as a percentage of a reference full agonist run in the same assay. Efficacy is described by % activation of receptor relative to a standard thiazolidinedione (TZD) full agonist.
(In general: Reporter assays use an easily measured gene product as a stand-in for the process of interest.)

The target of experiment [2] is T2, Human recombinant AT1 receptor (Homo sapiens, UniProt P30556).
T2 construct: purchased
T2 sequence (P30556 1-359): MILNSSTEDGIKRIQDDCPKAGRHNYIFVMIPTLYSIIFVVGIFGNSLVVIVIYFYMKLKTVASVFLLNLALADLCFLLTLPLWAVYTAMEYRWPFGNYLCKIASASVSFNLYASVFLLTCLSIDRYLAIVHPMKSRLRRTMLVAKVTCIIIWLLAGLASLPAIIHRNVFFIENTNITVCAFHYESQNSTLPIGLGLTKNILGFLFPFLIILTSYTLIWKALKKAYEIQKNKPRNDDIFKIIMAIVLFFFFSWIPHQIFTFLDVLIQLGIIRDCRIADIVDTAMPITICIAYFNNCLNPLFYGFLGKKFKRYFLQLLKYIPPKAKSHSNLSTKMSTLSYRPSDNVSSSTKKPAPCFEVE
The experiment can be described thus: AT1 receptor radioligand binding (flashplate). As to conditions: 125I Sar1,Ile8-Angiotensin II radioligand. The method, then:
Angiotensin II receptor antagonist activity may be determined using commercially available flashplates coated with the AT1 or AT2 receptor which provide a rapid and high throughput means to evaluate compounds compared to traditional filtration based assays (Regina M. Van Der Hee et al., Journal of Biomolecular Screening 10(2); 2005; 118-126).
AT1 receptor affinity was determined in a radioligand binding format using commercially available flashplate technology. Human recombinant AT1 receptor were coated on the wells of a 96 well flashplate and test compounds were diluted and added to wells at a final concentration range of 50 μM to 1 μM. Total binding was determined in the absence of compound and non-specific binding in the presence of 10 μM cold Angiotensin II. ^125I labeled Sar^1, Ile^8-Angiotensin II was added to all wells at Kd concentration and left for 2 hours at room temperature to equilibrate. Plates were read on a TopCount (Perkin Elmer) and concentration-response curves constructed using commercial curve fitting software. The Ki was determined via interpolation and the use of the Cheng-Prussof equation.

Consider `CCc1nc2c(C)cc(CC(C)=O)nc2n1[C@H]1CCc2cc(-c3ccccc3-c3nnn[nH]3)ccc21` [Example 14, 1-(3-((1S)-5-(2-(1H-tetrazol-5-yl)phenyl)-2,3-dihydro-1H-inden-1-yl)-2-ethyl-7-methyl-3H-imidazo[4,5-b]pyridin-5-yl)propan-2-one], for which, in experiment [1], the Emax is 21% and the pEC50 was 6.39. Moreover, in experiment [2], the pIC50 was 8.30.

Consider `CCc1nc2c(C)cc(C(C)(O)C(C)C)nc2n1[C@H]1CCc2cc(-c3ccccc3-c3nnn[nH]3)ccc21` (stereo partly drawn) [Example 61, 2-(3-((1S)-5-(2-(1H-tetrazol-5-yl)phenyl)-2,3-dihydro-1H-inden-1-yl)-2-ethyl-7-methyl-3H-imidazo[4,5-b]pyridin-5-yl)-3-methylbutan-2-ol], for which, in experiment [1], the Emax is 21% and the pEC50 was 6.39. In experiment [2], the negative logarithm of the IC50 (pIC50) was 8.30.

`CCc1nc2c(C)cc(CCC3(O)CCCC3)nc2n1[C@H]1CCc2cc(-c3ccccc3-c3nnn[nH]3)ccc21` [Example 42, 1-(2-(3-((1S)-5-(2-(1H-tetrazol-5-yl)phenyl)-2,3-dihydro-1H-inden-1-yl)-2-ethyl-7-methyl-3H-imidazo[4,5-b]pyridin-5-yl)ethyl)cyclopentanol]: in experiment [1], the Emax came to 29% and the pEC50 is 6.81. Also, the pIC50 in experiment [2] was 8.96.

On to `CCc1nc2c(C)cc(CCC(O)CC)nc2n1[C@H]1CCc2cc(-c3ccccc3-c3nnn[nH]3)ccc21` (stereo partly drawn) [Example 44, 1-(3-((1S)-5-(2-(1H-tetrazol-5-yl)phenyl)-2,3-dihydro-1H-inden-1-yl)-2-ethyl-7-methyl-3H-imidazo[4,5-b]pyridin-5-yl)pentan-3-ol], for which, in experiment [1], the Emax was found to be 38% and the pEC50 is 6.32. The negative logarithm of the IC50 (pIC50) in experiment [2] was 8.96.

In the case of `CCc1nc2c(C)cc(COC)nc2n1[C@H]1CCc2cc(-c3ccccc3-c3nnn[nH]3)ccc21` [Example 3, 3-((1S)-5-(2-(1H-tetrazol-5-yl)phenyl)-2,3-dihydro-1H-inden-1-yl)-2-ethyl-5-(methoxymethyl)-7-methyl-3H-imidazo[4,5-b]pyridine], in experiment [1], the Emax was determined as 32% and the pEC50 is 6.18. In addition, in experiment [2], the pIC50 is 8.80.

`CCc1nc2c(C)cc(CCC3(O)CCOC3)nc2n1[C@H]1CCc2cc(-c3ccccc3-c3nnn[nH]3)ccc21` (stereo partly drawn) [Example 54, 3-(2-(3-((1S)-5-(2-(1H-tetrazol-5-yl)phenyl)-2,3-dihydro-1H-inden-1-yl)-2-ethyl-7-methyl-3H-imidazo[4,5-b]pyridin-5-yl)ethyl)-tetrahydrofuran-3-ol]: in experiment [1], the Emax was 26% and the pEC50 is 6.27. The pIC50 in experiment [2] is 9.00.

Turning to `CCCc1nc2c(C)cc(CCC(C)O)nc2n1[C@H]1CCc2cc(-c3ccccc3-c3nnn[nH]3)ccc21` (stereo partly drawn) [Example 49, 4-(3-((1S)-5-(2-(1H-tetrazol-5-yl)phenyl)-2,3-dihydro-1H-inden-1-yl)-7-methyl-2-propyl-3H-imidazo[4,5-b]pyridin-5-yl)butan-2-ol], in experiment [1], the Emax was 18% and the pEC50 is 6.09. Further, in experiment [2], the negative-log IC50 (pIC50) is 8.80.

On to `CCc1nc2c(C)cc(Cc3ccccc3)nc2n1[C@H]1CCc2cc(-c3ccccc3-c3nnn[nH]3)ccc21` [Example 1, 3-((1S)-5-(2-(1H-tetrazol-5-yl)phenyl)-2,3-dihydro-1H-inden-1-yl)-5-benzyl-2-ethyl-7-methyl-3H-imidazo[4,5-b]pyridine], for which, in experiment [1], the Emax was 27% and the pEC50 is 7.05. Moreover, the pIC50 in experiment [2] is 8.35.

Take `CCc1nc2c(C)cc(CCC(C)(C)O)nc2n1[C@H]1CCc2cc(-c3ccccc3-c3nnn[nH]3)ccc21` [Example 53, 4-(3-((1S)-5-(2-(1H-tetrazol-5-yl)phenyl)-2,3-dihydro-1H-inden-1-yl)-2-ethyl-7-methyl-3H-imidazo[4,5-b]pyridin-5-yl)-2-methylbutan-2-ol]: in experiment [1], the Emax came to 30% and the negative logarithm of the EC50 (pEC50) is 6.67. Moreover, the pIC50 in experiment [2] is 8.85.

In the case of `CCCc1nc2c(C)cc(CC[C@@H](C)O)nc2n1[C@H]1CCc2cc(-c3ccccc3-c3nnn[nH]3)ccc21` [Example 40, (R)-4-(3-((1S)-5-(2-(1H-tetrazol-5-yl)phenyl)-2,3-dihydro-1H-inden-1-yl)-7-methyl-2-propyl-3H-imidazo[4,5-b]pyridin-5-yl)butan-2-ol], in experiment [1], the Emax amounted to 20% and the pEC50 is 6.11. In addition, the pIC50 in experiment [2] was 9.10.

Regarding `CCc1nc2c(C)cc(Cn3nc(C)cc3C)nc2n1[C@H]1CCc2cc(-c3ccccc3-c3nnn[nH]3)ccc21` [Example 67, 3-((1S)-5-(2-(1H-tetrazol-5-yl)phenyl)-2,3-dihydro-1H-inden-1-yl)-5-((3,5-dimethyl-1H-pyrazol-1-yl)methyl)-2-ethyl-7-methyl-3H-imidazo[4,5-b]pyridine], in experiment [1], the Emax amounted to 23% and the pEC50 is 6.96. The pIC50 in experiment [2] was 8.29.

As for `CCc1nc2c(C)cc(CCC(C)(O)CC(C)C)nc2n1[C@H]1CCc2cc(-c3ccccc3-c3nnn[nH]3)ccc21` (stereo partly drawn) [Example 69, 1-(3-((1S)-5-(2-(1H-tetrazol-5-yl)phenyl)-2,3-dihydro-1H-inden-1-yl)-2-ethyl-7-methyl-3H-imidazo[4,5-b]pyridin-5-yl)-3,5-dimethylhexan-3-ol], in experiment [1], the Emax was determined as 36% and the pEC50 is 7.52. The pIC50 in experiment [2] was 8.40.

Turning to `CCc1nc2c(C)cc(CC3CCCCC3O)nc2n1[C@H]1CCc2cc(-c3ccccc3-c3nnn[nH]3)ccc21` (single isomer, unassigned) [Example 64], in experiment [1], the Emax worked out at 21% and the negative-log EC50 (pEC50) is 7.02. Further, the pIC50 in experiment [2] is 8.72.

As for `CCc1nc2c(C)cc(CC[C@H](C)O)nc2n1[C@H]1CCc2cc(-c3ccccc3-c3nnn[nH]3)ccc21` [Example 36, (S)-4-(3-((1S)-5-(2-(1H-tetrazol-5-yl)phenyl)-2,3-dihydro-1H-inden-1-yl)-2-ethyl-7-methyl-3H-imidazo[4,5-b]pyridin-5-yl)butan-2-ol], in experiment [1], the Emax worked out at 30% and the pEC50 was 6.67. Further, the pIC50 in experiment [2] was 8.92.

`CCc1nc2c(C)cc(CC(C)O)nc2n1[C@H]1CCc2cc(-c3ccccc3-c3nnn[nH]3)ccc21` (mixture of isomers) [Example 15, 1-(3-((1S)-5-(2-(1H-tetrazol-5-yl)phenyl)-2,3-dihydro-1H-inden-1-yl)-2-ethyl-7-methyl-3H-imidazo[4,5-b]pyridin-5-yl)propan-2-ol]: in experiment [1], the Emax is 19% and the pEC50 is 7.07. For the same compound, in experiment [2], the pIC50 is 8.77.

As to `CCc1nc2c(C)cc(CCC(O)c3cccnc3)nc2n1[C@H]1CCc2cc(-c3ccccc3-c3nnn[nH]3)ccc21` (stereo partly drawn) [Example 34, 3-(3-((1S)-5-(2-(1H-tetrazol-5-yl)phenyl)-2,3-dihydro-1H-inden-1-yl)-2-ethyl-7-methyl-3H-imidazo[4,5-b]pyridin-5-yl)-1-(pyridin-3-yl)propan-1-ol], in experiment [1], the Emax was 12% and the pEC50 was 6.23. In experiment [2], the pIC50 is 8.68.

Turning to `CCc1nc2c(C)cc(CC(O)C3CC3)nc2n1[C@H]1CCc2cc(-c3ccccc3-c3nnn[nH]3)ccc21` (stereo partly drawn) [Example 19, 2 (3-((1S)-5-(2-(1H-tetrazol-5-yl)phenyl)-2,3-dihydro-1H-inden-1-yl)-2-ethyl-7-methyl-3H-imidazo[4,5-b]pyridin-5-yl)-1-cyclopropylethanol], in experiment [1], the Emax turned out to be 20% and the pEC50 was 6.98. The pIC50 in experiment [2] is 8.14.
